Data on 14 molecules can be found in article PMC6952103, “Biochemical characterization of Ty1 retrotransposon protease” (PLoS ONE, 2020).

Data set [1] has as its target T1, Ty1 PR-His6 (Saccharomyces cerevisiae, UniProt Q07793).
T1 construct: made in house; host or cells: E. coli BL21(DE3), pET11a Gag-PR-His6 (gift of J.F. Lawler); soluble fraction, Ni-chelate chromatography, autoprocessed
T1 sequence (Q07793 402-582 limits assumed): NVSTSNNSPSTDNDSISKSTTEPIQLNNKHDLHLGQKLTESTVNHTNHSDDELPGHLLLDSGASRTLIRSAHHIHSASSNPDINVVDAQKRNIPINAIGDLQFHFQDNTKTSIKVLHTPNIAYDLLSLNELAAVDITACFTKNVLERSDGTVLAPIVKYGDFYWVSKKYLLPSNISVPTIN
In words: Inhibition study of Ty1 PR-His6. The data set is classed as biochemical. As to conditions: Ty1 PR-His6 (400–1600 nM), VPTIN*NVHTS 0.44 mM, inhibitor ≥100 nM final, DMSO, peptide buffer A, 2 h at 30°C. The procedure: Ty1 PR-His6 activity was measured in the presence of various HIV-1 protease inhibitors. […] To study effect of inhibitors on proteolytic activity, reaction mixtures contained 5 μl purified Ty1 PR-His6 (400–1600 nM), 10 μl peptide buffer A, 4.8 μl oligopeptide substrate (VPTIN*NVHTS, 0.44 mM), and 0.2 μl inhibitor. For screening, inhibitors were dissolved in DMSO to have ≥100 nM final concentration. DMSO solution containing no inhibitor was used as control. Reaction mixtures were incubated for 2 h at 30°C.

A further data set concerns XMRV PR. Particulars: ref [45]; cited from earlier work. From the text: Despite the fact that out of the tested inhibitors only acet ...
For a further data set, the target named is T2, Ty1 PR (Saccharomyces cerevisiae, UniProt Q07793).
T2 construct: the protease domain of Ty1 is unusually long, consisting of 181 residues; made in house; host or cells: E. coli BL21(DE3), pET11a
T2 sequence (Q07793 402-582 limits assumed): T1 sequence (Q07793 402-582 limits assumed)
In words: Oligopeptide-based proteolytic assay (HPLC), untagged Ty1 PR. As to conditions: peptide buffer A pH 7.0, 30 °C; for cleavage (in words): Ty1 PR, oligopeptide substrate 2 mg/ml stock, 2 up to 5 h. Type of data set: biochemical. The procedure: (§1) The oligopeptides used in the proteolytic assays (Table 1A) were synthesized as previously described. Reaction mixtures contained 10 μl peptide buffer A (20 mM PIPES, 100 mM NaCl, 0.5% Nonidet P-40, 10% glycerol, 2 mM dithiotreitol (DTT), pH 7.0), 5 μl purified Ty1 PR-His6 (processed from Ty1 Gag-PR-His6) or Ty1 PR, and 5 μl oligopeptide substrate (2 mg/ml) dissolved in water. Reaction mixtures were incubated for the different experiments from 2 up to 5 h at 30°C. The reactions were stopped by the addition of 180 μl 1% trifluoroacetic acid (TFA).
(§2) The products were separated by an HPLC-based method using a 0–100% water-acetonitrile gradient in the presence of TFA on Merck Hitachi instrument. For enzyme kinetic measurements, VPTIN*NVHTS oligopeptide substrate (representing Ty1 PR/IN cleavage site) was used at 0.2–1.2 mM; Ty1 PR (400–1600 nM) was incubated with the substrate at 30 °C for 2 h, whereas Ty1 PR-His6 (500–1500 nM) was incubated for 2.5 h. Kinetic parameters (shown in Table 1A) were determined by fitting the data obtained at less than 20% substrate hydrolysis to the Michaelis-Menten equation using GraphPad Prism version 5.00 for Windows (GraphPad Software, La Jolla California USA, www.graphpad.com). Statistical significances were determined by GraphPad QuickCalcs (https://www.graphpad.com/quickcalcs/ttest2).
(§3) For investigation of optimal conditions for enzyme folding, Ty1 PR was dialyzed against various buffers and buffer combinations that have been shown previously to be suitable for retroviral protease activity. In peptide-based assays, both protease and oligopeptide solutions were added to the buffer, and the reaction mixtures were incubated at 30°C, and stopped by the addition TFA. The mixtures were then injected onto a reversed-phase chromatography column in order to separate substrates and cleavage products, the substrate turnover was determined by integration of peak areas.

Another data set deals with HFV PR. As to conditions: ref [40], cited from earlier work; for kcat/Km: buffer optimized for that protease. The text has this: Similarly low catalytic activities were also observed previously for HFV and the Gag-encoded Avian myeloblastosis virus (AMV) proteases. Both the untagged, and the His6-tagged (self-processed) PRs cleaved th ...
Data set [2] deals with T1, Ty1 PR-His6. Description: Oligopeptide-based proteolytic assay (HPLC), Ty1 PR-His6. The data set is classed as biochemical. Particulars: for cleavage (in words): Ty1 PR-His6, oligopeptide substrate 2 mg/ml stock, 2 up to 5 h. The procedure: as §1, §2, §3
The test system of another data set is HIV-1 PR. Particulars: cited from earlier work. From the text:
For instance, the optimal pH of HFV protease is 6.6–6.8 [40] while that of HIV-1 PR is between 4 and 6 [41]. […] Higher sensitivity to urea implies lower dimer stability for Ty1 protease, the possible structural background of this difference is discussed later in the In silico structural analysi ... || (+ 1 further places)

Data set [3] relates to Copia transposon protease. As to conditions: ref [17], cited from earlier work. The procedure:
The dependence of enzyme activity on ionic strength was studied, and highest activities were measured at 1.5–2 M NaCl concentration (Fig 4A). […] For instance, the optimal pH of HFV protease is 6.6–6.8 [40] while that of HIV-1 PR is between 4 and 6 [41].

Where [4] appears, read: Ty1 PR (400–1600 nM), substrate 0.2–1.2 mM, 2 h, SD (n≥2).
Setting [5] is: Ty1 PR-His6 (500–1500 nM), substrate 0.2–1.2 mM, peptide buffer A pH 7.0, 30 °C, 2.5 h, HPLC, SD (n≥2).
[6] abbreviates: peptide buffer A pH 7.0, 30 °C, HPLC.

Where “and” joins values, the source holds several entries; their conditions need not be identical. Identical values can stand only once.

`CCC[C@@]1(CCc2ccccc2)CC(O)=C([C@H](CC)c2cccc(NS(=O)(=O)c3ccc(C(F)(F)F)cn3)c2)C(=O)O1` [tipranavir]: at Ty1 PR-His6 [1], the “inhibition of proteolytic activity (in words)” value is on record as “unable to inhibit”. Moreover, the “inhibition (in words)” value in the data set with XMRV PR was “able to inhibit”.

Regarding “VPTIN*NVHTS [synthetic oligopeptide substrate representing the PR/IN cleavage site of Ty1]”, the results for the Km on Ty1 PR (setting [4]), with HFV PR and on Ty1 PR-His6 [2] (setting [5]) were 210 ± 70 µM, 30 ± 10 µM and 250 ± 90 µM, respectively. In addition, the figures for the kcat on Ty1 PR (setting [4]), in the data set with HFV PR and at Ty1 PR-His6 [2] (setting [5]) were 0.006 ± 0.001 s⁻¹, 0.0002 ± 0.00003 s⁻¹ and 0.009 ± 0.001 s⁻¹, respectively. Moreover, the kcat/Km (in general, the turnover number divided by the Michaelis constant) on Ty1 PR (setting [4]) was 28 ± 10.5 M⁻¹ s⁻¹; with HFV PR, 7 M⁻¹ s⁻¹ and 7 ± 2.4 M⁻¹ s⁻¹; on Ty1 PR-His6 [2] (setting [5]) it was 36 ± 13.2 M⁻¹ s⁻¹. The “cleavage (in words)” value on Ty1 PR and at Ty1 PR-His6 [2] (setting [6]) was “cleaved” throughout. Also, the “difference of specificity constants between untagged Ty1 PR and Ty1 PR-His6 (in words)” value at Ty1 PR-His6 [2] (Ty1 PR-His6 versus untagged Ty1 PR) is listed as “not significant statistically”.

Consider “TARAH*NVSTS [synthetic oligopeptide substrate representing the Gag/PR cleavage site of Ty1]”, for which the “cleavage (in words)” value on Ty1 PR and on Ty1 PR-His6 [2] (setting [6]) was “no cleavage was observed” throughout. Besides, the “hydrolysis (in words)” value in the data set on HFV PR was “not hydrolyzed”.

As for “IHLIA*AVKAV [synthetic oligopeptide substrate representing the IN/RT cleavage site of Ty1]”, at Ty1 PR, the “cleavage (in words)” value was “no cleavage was observed”. In addition, in the data set on HFV PR, the kcat/Km is 2 ± 0.4 M⁻¹ s⁻¹; the Km (in general, the substrate concentration at which the rate is half of its maximum) was 1000 ± 160 µM; the kcat (as a rule, the number of substrate molecules converted per active site and unit of time at saturation) was 0.0020 ± 0.0002 s⁻¹. For the same molecule, the “cleavage (in words)” value on Ty1 PR-His6 [2] (setting [6]) is recorded as “no cleavage was observed”.

For the molecule `CC(C)CN(C[C@@H](O)[C@H](Cc1ccccc1)NC(=O)O[C@H]1CCOC1)S(=O)(=O)c1ccc(N)cc1` [amprenavir], the “inhibition of proteolytic activity (in words)” value against Ty1 PR-His6 [1] is recorded as “unable to inhibit”. The “inhibition (in words)” value with XMRV PR is “able to inhibit”.

Turning to T26S mutant HIV-1 protease, in the data set with HIV-1 PR (T26S mutant, ref [49]), the “specific activity compared to wild-type (in words)” value is on record as “lower specific activity”.

Regarding `Cc1cccc(C)c1OCC(=O)N[C@@H](Cc1ccccc1)[C@@H](O)C[C@H](Cc1ccccc1)NC(=O)[C@H](C(C)C)N1CCCNC1=O` [lopinavir], on Ty1 PR-His6 [1], the “inhibition of proteolytic activity (in words)” value is “unable to inhibit”. For the same molecule, the “inhibition (in words)” value with XMRV PR is “able to inhibit”.

Take `CC(C)(C)NC(=O)[C@@H]1C[C@@H]2CCCC[C@@H]2CN1C[C@@H](O)[C@H](Cc1ccccc1)NC(=O)[C@H](CC(N)=O)NC(=O)c1ccc2ccccc2n1` [saquinavir]: the “inhibition of proteolytic activity (in words)” value at Ty1 PR-His6 [1] is on record as “unable to inhibit”.

Consider “HIV-1 PR: human immunodeficiency virus type 1 protease”, for which, in the data set with HIV-1 PR (HIV-1 PR, 37°C, ref [41]), the “activity at 37°C (in words)” value was “highly active”. In addition, in the data set on HIV-1 PR (HIV-1 PR, ref [29]), the “UC50 (urea)” value is recorded as 1.47 M.

Take `CC(C)CN(C[C@@H](O)[C@H](Cc1ccccc1)NC(=O)O[C@H]1CO[C@H]2OCC[C@H]21)S(=O)(=O)c1ccc(N)cc1` [darunavir]: the “inhibition of proteolytic activity (in words)” value against Ty1 PR-His6 [1] was “unable to inhibit”. Further, in the data set with XMRV PR, the “inhibition (in words)” value is given as “able to inhibit”.

Turning to `Cc1c(O)cccc1C(=O)N[C@@H](CSc1ccccc1)[C@H](O)CN1C[C@H]2CCCC[C@H]2C[C@H]1C(=O)NC(C)(C)C` [nelfinavir], the “inhibition of proteolytic activity (in words)” value on Ty1 PR-His6 [1] is given as “unable to inhibit”.

Consider `COC(=O)N[C@H](C(=O)N[C@@H](Cc1ccccc1)[C@@H](O)CN(Cc1ccc(-c2ccccn2)cc1)NC(=O)[C@@H](NC(=O)OC)C(C)(C)C)C(C)(C)C` [atazanavir], for which the “inhibition of proteolytic activity (in words)” value against Ty1 PR-His6 [1] is “unable to inhibit”. Moreover, in the data set with XMRV PR, the “inhibition (in words)” value is given as “able to inhibit”.

With `O=C1N(Cc2ccc(CO)cc2)[C@H](Cc2ccccc2)[C@H](O)[C@@H](O)[C@@H](Cc2ccccc2)N1Cc1ccc(CO)cc1` [DMP-323], on Ty1 PR-His6 [1], the “inhibition of proteolytic activity (in words)” value is “unable to inhibit”. The “inhibition (in words)” value with XMRV PR is listed as “able to inhibit”.

B1: Copia transposon protease: Copia transposon protease of D. melanogaster (protein, UniProt P04146 271-1409, looked up)
Copia protease: IAFMVKEVNNTSVMDNCGFVLDSGASDHLINDESLYTDSVEVVPPLKIAVAKQGEFIYATKRGIVRLRNDHEITLEDVLFCKEAAGNLMSVKRLQEAGMSIEFDKSGVTISKNGLMVVKNSGMLNNVPVINFQAYSINAKHKNNFRLWHERFGHISDGKLLEIKRKNMFSDQSLLNNLELSCEICEPCLNGKQARLPFKQLKDKTHIKRPLFVVHSDVCGPITPVTLDDKNYFVIFVDQFTHYCVTYLIKYKSDVFSMFQDFVAKSEAHFNLKVVYLYIDNGREYLSNEMRQFCVKKGISYHLTVPHTPQLNGVSERMIRTITEKARTMVSGAKLDKSFWGEAVLTATYLINRIPSRALVDSSKTPYEMWHNKKPYLKHLRVFGATVYVHIKNKQGKFDDKSFKSIFVGYEPNGFKLWDAVNEKFIVARDVVVDETNMVNSRAVKFETVFLKDSKESENKNFPNDSRKIIQTEFPNESKECDNIQFLKDSKESENKNFPNDSRKIIQTEFPNESKECDNIQFLKDSKESNKYFLNESKKRKRDDHLNESKGSGNPNESRESETAEHLKEIGIDNPTKNDGIEIINRRSERLKTKPQISYNEEDNSLNKVVLNAHTIFNDVPNSFDEIQYRDDKSSWEEAINTELNAHKINNTWTITKRPENKNIVDSRWVFSVKYNELGNPIRYKARLVARGFTQKYQIDYEETFAPVARISSFRFILSLVIQYNLKVHQMDVKTAFLNGTLKEEIYMRLPQGISCNSDNVCKLNKAIYGLKQAARCWFEVFEQALKECEFVNSSVDRCIYILDKGNINENIYVLLYVDDVVIATGDMTRMNNFKRYLMEKFRMTDLNEIKHFIGIRIEMQEDKIYLSQSAYVKKILSKFNMENCNAVSTPLPSKINYELLNSDEDCNTPCRSLIGCLMYIMLCTRPDLTTAVNILSRYSSKNNSELWQNLKRVLRYLKGTIDMKLIFKKNLAFENKIIGYVDSDWAGSEIDRKSTTGYLFKMFDFNLICWNTKRQNSVAASSTEAEYMALFEAVREALWLKFLLTSINIKLENPIKIYEDNQGCISIANNPSCHKRAKHIDIKYHFAREQVQNNVICLEYIPTENQLADIFTKPLPAARFVELRDKLGLLQDDQSNAE
modifications: Copia protease
notes: Copia transposon protease of D. melanogaster
On to B1, for which, in data set [3] (20–70°C temperature range), the relative activity was no less than 50%. Moreover, in data set [3] (Copia transposon protease), the “NaCl concentration of highest activity” value is recorded as 2 M, the “pH at which synthetic substrate is cleaved most efficiently” value is on record as 4.0 and the “temperature of highest activity” value was 70 °C.
